Experimental data taken from patent US20170326232A1, “INTRATUMORAL ADMINISTRATION OF PARTICLES CONTAINING A TOLL-LIKE RECEPTOR 9 AGONIST AND A TUMOR ANTIGEN FOR TREATING CANCER” (Dynavax Technologies Corporation, priority 2016, published 2017).
Where “and” joins values, the source holds several entries; their conditions need not be identical. Equal values may be shown once. Read-outs that look alike come from different tables or passages of the source. One block for each substance: values may come before it. Square brackets hold non-standard residues; d marks the D form. Ends that are not written are not given here. PEG24 = NCCOCCOCCOCCOCCOCCOCCOCCOCCOCCOCCOCCOCCOCCOCCOCCOCCOCCOCCOCCOCCOCCOCCOCCOCCC(=O)O; Cha = N[C@@H](CC1CCCCC1)C(=O)O

Legend:
Type in all cases: physicochemical
[1] = Adsorption of CpG-ODN to aluminum hydroxide, quantified by UV absorbance at 260 nm; details: for % D61-04 Bound: Al(OH)3 1.0 mg; for D61-01 binding: co-adsorption with AH1 CII peptide
[2] = Solubilization of peptide antigens in buffers and organic solvents (visual assessment); parameters: key to Qualitative Solubility score: 1 = fully soluble/clarity similar to water; 2 = partially soluble; 3 = insoluble
[3] = Adsorption of peptide antigens to aluminum hydroxide, quantified by UV, amino acid analysis or RP-HPLC; details: RP-HPLC at 215 nm
[4] = 10 mM NaOAc, 150 mM NaCl, pH 7.0
[5] = input 0.25 mg to 1 mg aluminum hydroxide, pH 7.0
[6] = input 0.50 mg to 1 mg aluminum hydroxide, pH 7.0
[7] = input 1.0 mg to 1 mg aluminum hydroxide, pH 7.0
[8] = input 1.5 mg to 1 mg aluminum hydroxide, pH 7.0

Substance: 5′-TCGAACGTTCGAACGTTCGAACGTTCGAAT-3′ (DNA TCGAACGTTCGAACGTTCGAACGTTCGAAT; DNA, all phosphorothioate, methylation of C not given here) [D61-04]
maximum bound by 1 mg of aluminum hydroxide [1, 4]: 1.1 mg
Binding efficiency [1, 5]: 100%
Bound [1, 5]: 0.25 mg
Binding efficiency [1, 6]: 100%
Bound [1, 6]: 0.50 mg
Binding efficiency [1, 7]: 89%
Bound [1, 7]: 0.89 mg
Binding efficiency [1, 8]: 73%
Bound [1, 8]: 1.1 mg
% D61-04 Bound ([1]; pH 6.5, D61-04 input 1.0 mg): 92%
% D61-04 Bound ([1]; pH 6.5, D61-04 input 1.5 mg): 78%
% D61-04 Bound ([1]; pH 6.5, D61-04 input 2.0 mg): 63%
% D61-04 Bound ([1]; pH 7.0, D61-04 input 1.0 mg): 91%
% D61-04 Bound ([1]; pH 7.0, D61-04 input 1.5 mg): 73%
% D61-04 Bound ([1]; pH 7.0, D61-04 input 2.0 mg): 61%
% D61-04 Bound ([1]; pH 7.5, D61-04 input 1.0 mg): 92%
% D61-04 Bound ([1]; pH 7.5, D61-04 input 1.5 mg): 74%
% D61-04 Bound ([1]; pH 7.5, D61-04 input 2.0 mg): 60%

Substance: 5′-TCGGCGC-3′-HEG-5′-AACGTTC-3′-HEG-5′-TCGGCGC-3′ (DNA TCGGCGCAACGTTCTCGGCGC; HEG spacers, phosphorothioate linkages, chemistry not fully specified) [D61-01]
maximum bound by 1 mg of aluminum hydroxide [1, 4]: 1.0 mg
D61-01 Binding efficiency ([1]; 10 mM NaOAc, 150 mM NaCl, pH 7.0, Table S3-1): 71-100%
D61-01 binding ([1]; 2.5 mg of aluminum): 86%
D61-01 binding ([1]; four out of five conditions): 100%
D61-01 binding efficiencies ([1]; co-adsorption with HPV16 peptide, two reactions): 74% and 80%
Binding efficiency [1, 5]: 100%
Bound [1, 5]: 0.25 mg
Binding efficiency [1, 6]: 100%
Bound [1, 6]: 0.50 mg
Binding efficiency [1, 7]: 99%
Bound [1, 7]: 0.99 mg
Binding efficiency [1, 8]: 65%
Bound [1, 8]: 0.97 mg

solubility ([2]; 0.1 M sodium bicarbonate buffer, 0.1 M sodium bicarbonate, pH 8 buffer, read-out: solubility): 2000 to 4000 µg/mL
solubility ([2]; water, PBS or sodium acetate (NaOAc) buffers): not appreciably soluble
Substance: CSGLEQLESIINFEKLTEWTSSNVMEERKIKV [OVApep]

Substance: HRQLQLSISSCLQQLSLLMWITQCFLPVFLAQ [NY-ESO-1142-173 OLP]
(%) binding efficiency to aluminum hydroxide ([3]; 2-Butanol): 100%
(%) binding efficiency to aluminum hydroxide ([3]; Acetic acid): 100%
(%) binding efficiency to aluminum hydroxide ([3]; Acetone): 100%
(%) binding efficiency to aluminum hydroxide ([3]; Ethanol): 100%
(%) binding efficiency to aluminum hydroxide ([3]; Formic acid): 100%
(%) binding efficiency to aluminum hydroxide ([3]; Isopropyl alcohol): 100%
Qualitative Solubility score ([2]; Acetic acid): 1
Visual Appearance ([2]; Acetic acid): clear
Qualitative Solubility score ([2]; Acetone): 1
Visual Appearance ([2]; Acetone): clear
Qualitative Solubility score ([2]; Ethanol): 1
Visual Appearance ([2]; Ethanol): clear
Qualitative Solubility score ([2]; Formic acid): 1
Visual Appearance ([2]; Formic acid): clear
Qualitative Solubility score ([2]; Isoamyl alcohol): 3
Visual Appearance ([2]; Isoamyl alcohol): hazy
Qualitative Solubility score ([2]; Isopropyl acetate): 3
Visual Appearance ([2]; Isopropyl acetate): hazy/insoluble
Qualitative Solubility score ([2]; Methyl acetate): 3
Visual Appearance ([2]; Methyl acetate): hazy/insoluble
Qualitative Solubility score ([2]; n-Butyl acetate): 3
Visual Appearance ([2]; n-Butyl acetate): hazy/insoluble
solubility after dilution of solvent ([2]; six solvents diluted to 20% solvent/80% water (v/v), data not shown): remained visually soluble

solubility ([2]; 0.1 M sodium bicarbonate pH 8 buffer, water, PBS, sodium bicarbonate or NaOAc buffers): not appreciably soluble
solubility ([2]; 6M guanidine hydrochloride pH 8.5 or 20% IPA/water (v/v), read-out: solubility): 1000 to 5000 µg/mL
Substance: [PEG24]VGALEGPRNQDWLAK[Cha]VAAWTLKAAATAYRYHLLSSVYDFFVWLSC [Triple, PEG24-VGALEGPRNQDWLAKXVAAWTLKAAATAYRYHLLSSVYDFFVWLSC wherein X = L-cyclohexylalanine]
